One assay relates to REC-1 xenograft. Kind of assay: REC-1 xenograft model. It counts as in vivo, mice. The conditions noted are these: for Tumor volume: BIDX28. The source says: Typically, athymic nude mice (CD-1 nu/nu) or SCID mice are obtained at age 6-8 weeks from vendors and acclimated for a minimum 7-day period. The cancer cells are then implanted into the nude mice. Depending on the specific tumor type, tumors are typically detectable about two weeks following implantation. When tumor sizes reach ˜100-200 mm^3, the animals with appreciable tumor size and shape are randomly assigned into groups of 8 mice each, including one vehicle control group and treatment groups. Dosing varies depending on the purpose and length of each study, which typically proceeds for about 3-4 weeks. Tumor sizes and body weight are typically measured three times per week. In addition to the determination of tumor size changes, the last tumor measurement is used to generate the tumor size change ratio (T/C value), a standard metric developed by the National Cancer Institute for xenograft tumor evaluation. In most cases, % T/C values are calculated using the following formula: % T/C=100×ΔT/ΔC if ΔT>0. When tumor regression occurred (ΔT<0), however, the following formula is used: % T/T0=100×ΔT/T0. Values of <42% are considered significant.

The target in assay [1] is T1, WT BTK (Homo sapiens, UniProt Q06187). Kind of assay: In vitro dialysis assay (irreversibility assay), WT BTK. It counts as biochemical. Conditions: for Recovery after 24 h dialysis: 0.003 mM compound pre-incubated with 2 nM BTK for 2 hr, dialyzed 24 hr against buffer with 40 mM ATP, BTK activity vs non-dialyzed samples; for Conclusion (WT BTK): reversible or irreversible inhibition after 24 hr dialysis. How it is done:
The compound-enzyme complex was dialyzed against the same buffer supplemented with 40 mM ATP for 24 hr. Cumulative dialysis factor >160,000×. After dialysis, the BTK activity was measured in the presence 40 mM ATP and 1 mM substrate peptide and compared to that in non-dialyzed samples. Assay buffer: 100 mM HEPES, pH7.5; 0.1% BSA, 0.01% Triton-X 100; 5 mM MgCl2; 1 mM DTT.

The target of assay [2] is T1, WT BTK. Kind of assay: Caliper-based kinase assay, WT BTK. It counts as biochemical. Conditions: 0.5 nM enzyme, 16 μM ATP, 3 h at room temperature; read-out: WT BTK IC50 (nM) (irreversible inhibition). The protocol:
The reaction was then terminated with EDTA, final concentration 20 mM and the phosphorylated reaction product was quantified on a Caliper Desktop Profiler (Caliper LabChip 3000).

The mark [3] stands for this setting: 10 mg/kg po, day 26 of the study.
[4] abbreviates: 50 mg/kg po, day 28 of the study.

Structures are written as SMILES.

13 compounds from patent US12637467B2, “Inhibitor of BTK and mutants thereof” (Newave Pharmaceutical Inc., priority 2019, dated 2026) can be followed below.

T1 sequence (Q06187 whole entry): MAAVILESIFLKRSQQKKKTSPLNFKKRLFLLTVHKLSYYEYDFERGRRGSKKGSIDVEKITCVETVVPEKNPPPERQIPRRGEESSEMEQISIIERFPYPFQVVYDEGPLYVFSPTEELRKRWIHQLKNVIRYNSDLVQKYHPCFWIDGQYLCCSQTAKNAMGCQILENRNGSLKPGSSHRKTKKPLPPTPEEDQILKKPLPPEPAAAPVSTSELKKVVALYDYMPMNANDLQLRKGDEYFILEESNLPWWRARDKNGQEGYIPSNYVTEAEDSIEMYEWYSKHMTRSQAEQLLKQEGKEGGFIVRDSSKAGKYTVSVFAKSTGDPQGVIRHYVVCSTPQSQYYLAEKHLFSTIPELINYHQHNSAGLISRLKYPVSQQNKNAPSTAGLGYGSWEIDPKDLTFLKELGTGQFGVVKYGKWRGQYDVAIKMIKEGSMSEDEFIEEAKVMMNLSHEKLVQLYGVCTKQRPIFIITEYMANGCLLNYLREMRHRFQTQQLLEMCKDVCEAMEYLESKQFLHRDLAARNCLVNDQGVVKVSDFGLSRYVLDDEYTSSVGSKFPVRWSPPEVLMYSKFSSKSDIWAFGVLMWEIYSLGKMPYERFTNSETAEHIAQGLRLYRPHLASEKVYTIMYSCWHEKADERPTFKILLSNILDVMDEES

Regarding `CC#CC(=O)N1CCC[C@H]1c1nc(-c2ccc(C(=O)Nc3ccccn3)cc2)c2c(N)nccn12` [ACP-196, Acalabrutinib, reference compound], the Tumor volume in the assay with REC-1 xenograft (setting [3]) is 672 mm^3; in the assay with REC-1 xenograft (setting [4]), 108 mm^3.

Take `C=CC(=O)Nc1cc(Nc2nc(-c3ccnc(N4CCn5c(cc6c5CC(C)(C)C6)C4=O)c3CO)cn(C)c2=O)ccc1N1CCN(C2CCOCC2)C[C@@H]1C` [Example 22, N-(5-[[6-(2-[4,4-dimethyl-9-oxo-1,10-diazatricyclo[6.4.0.0^[2,6]]dodeca-2(6),7-dien-10-yl]-3-(hydroxymethyl)pyridin-4-yl)-4-methyl-3-oxopyrazin-2-yl]amino]-2-[(2S)-2-methyl-4-(oxan-4-yl)piperazin-1-yl]phenyl)prop-2-enamide]: the “Recovery after 24 h dialysis” value at WT BTK [1] was about 1%. Further, the “Conclusion (WT BTK)” value at WT BTK [1] is “Irreversible/covalent inhibition”. Also, the Tumor volume in the assay with REC-1 xenograft (setting [3]) amounted to 450 mm^3; in the assay on REC-1 xenograft (12.5 mg/kg po, day 28 of the study), 201 mm^3; with REC-1 xenograft (25 mg/kg po, day 28 of the study) it was 58 mm^3; in the assay with REC-1 xenograft (setting [4]) it was 56 mm^3. Also, the “efficacy compared with Acalabrutinib” value in the assay on REC-1 xenograft (REC-1 xenograft, 10 mg/kg, day 26 of the study) was “better efficacy than Acalabrutinib”. Further, the “reduction of tumor growth” value in the assay with REC-1 xenograft (REC-1 xenograft, 12.5-50 mg/kg, day 28 of the study) is “dose-dependent reduction of tumor growth”.

Broadly, the IC50 is the concentration that gives 50% inhibition. As to `C=CC(=O)Nc1cc(Nc2nc(-c3ccnc(N4CCc5ncccc5C4=O)c3CO)cn(C)c2=O)ccc1N1CCN(C2COC2)C[C@@H]1C` [Example 31, N-[5-([6-[3-(hydroxymethyl)-2-(5-oxo-7,8-dihydro-1,6-naphthyridin-6-yl)pyridin-4-yl]-4-methyl-3-oxopyrazin-2-yl]amino)-2-[(2S)-2-methyl-4-(oxetan-3-yl)piperazin-1-yl]phenyl]prop-2-enamide], the IC50 on WT BTK [2] is over 100 nM.

For the compound `C=CC(=O)Nc1cc(Nc2nc(-c3ccnc(N4CCc5ccncc5C4=O)c3CO)cn(C)c2=O)ccc1N1CCN(C2COC2)C[C@@H]1C` [Example 32, N-[5-([6-[3-(hydroxymethyl)-2-(1-oxo-3,4-dihydro-2,7-naphthyridin-2-yl)pyridin-4-yl]-4-methyl-3-oxopyrazin-2-yl]amino)-2-[(2S)-2-methyl-4-(oxetan-3-yl)piperazin-1-yl]phenyl]prop-2-enamide], on WT BTK [2], the IC50 was over 100 nM.

`C=CC(=O)Nc1cc(Nc2nc(-c3ccnc(N4CCCn5c(cc6c5CC(C)(C)C6)C4=O)c3CO)cn(C)c2=O)ccc1N1CCN([C@H]2C[C@@H](C)O[C@@H](C)C2)C[C@@H]1C` [Example 38, N-(5-[[6-(2-[4,4-dimethyl-9-oxo-1,10-diazatricyclo[6.5.0.0^[2,6]]trideca-2(6),7-dien-10-yl]-3-(hydroxymethyl)pyridin-4-yl)-4-methyl-3-oxopyrazin-2-yl]amino]-2-[(2S)-2-methyl-4-[(2R,4r,6S)-2,6-dimethyloxan-4-yl]piperazin-1-yl]phenyl)prop-2-enamide]: on WT BTK [1], the “Recovery after 24 h dialysis” value is about 1% and the “Conclusion (WT BTK)” value was “Irreversible/covalent inhibition”.

As for `C=CC(=O)Nc1cc(Nc2nc(-c3ccnc(N4CCn5c(cc6c5CC(C)(C)C6)C4=O)c3CO)cn(C)c2=O)ccc1N1CCN(C2CCOC2)C[C@@H]1C` (stereo partly drawn) [Example 39, N-(5-[[6-(2-[4,4-dimethyl-9-oxo-1,10-diazatricyclo[6.4.0.0^[2,6]]dodeca-2(6),7-dien-10-yl]-3-(hydroxymethyl)pyridin-4-yl)-4-methyl-3-oxopyrazin-2-yl]amino]-2-[(2S)-2-methyl-4-(oxolan-3-yl)piperazin-1-yl]phenyl)prop-2-enamide], at WT BTK [1], the “Recovery after 24 h dialysis” value is recorded as about 1% and the “Conclusion (WT BTK)” value was “Irreversible/covalent inhibition”.

As to `C=CC(=O)Nc1cc(Nc2nc(-c3ccnc(N4CCn5c(cc6c5CC(C)(C)C6)C4=O)c3C)cn(C)c2=O)ccc1N1CCN(C2CCOCC2)C[C@@H]1C` [Example 40, N-(5-[[6-(2-[4,4-dimethyl-9-oxo-1,10-diazatricyclo[6.4.0.0^[2,6]]dodeca-2(6),7-dien-10-yl]-3-methylpyridin-4-yl)-4-methyl-3-oxopyrazin-2-yl]amino]-2-[(2S)-2-methyl-4-(oxan-4-yl)piperazin-1-yl]phenyl)prop-2-enamide], at WT BTK [1], the “Recovery after 24 h dialysis” value is about 1% and the “Conclusion (WT BTK)” value is reported as “Irreversible/covalent inhibition”.

For the compound `C=CC(=O)Nc1cc(Nc2nc(-c3ccnc(N4CCn5c(cc6c5CC(C)(C)C6)C4=O)c3CO)cn(C)c2=O)ccc1C1C(=O)N(C)CCN1C1COC1` (stereo not shown) [Example 41], at WT BTK [1], the “Recovery after 24 h dialysis” value is about 1% and the “Conclusion (WT BTK)” value is given as “Irreversible/covalent inhibition”.

In the case of `C=CC(=O)Nc1cc(Nc2nc(-c3ccnc(N4CCn5c(cc6c5CC(C)(C)C6)C4=O)c3CO)cn(C)c2=O)ccc1C1CN(C2COC2)CC(=O)N1C` (stereo not shown) [Example 42, N-(5-[[6-(2-[4,4-dimethyl-9-oxo-1,10-diazatricyclo[6.4.0.0^[2,6]]dodeca-2(6),7-dien-10-yl]-3-(hydroxymethyl)pyri-din-4-yl)-4-methyl-3-oxopyrazin-2-yl]amino]-2-[1-methyl-4-(oxetan-3-yl)-6-oxopiperazin-2-yl]phenyl)prop-2-enamide], on WT BTK [1], the “Recovery after 24 h dialysis” value is about 1% and the “Conclusion (WT BTK)” value is “Irreversible/covalent inhibition”.

In the case of `C=CC(=O)Nc1cc(Nc2nc(-c3ccnc(N4CCn5c(cc6c5CC(C)(C)C6)C4=O)c3CO)cn(C)c2=O)ccc1C1CN(C)C(=O)CN1C1COC1` (stereo not shown) [Example 43], the “Conclusion (WT BTK)” value at WT BTK [1] is “Irreversible/covalent inhibition”.

Consider `C=CC(=O)Nc1cc(Nc2nc(-c3ccnc(N4CCc5c(sc6c5CCCC6)C4=O)c3C)cn(C)c2=O)ccc1N1CCN(C2COC2)C[C@@H]1C` [Example 44, (S)—N-(2-(2-methyl-4-(oxetan-3-yl)piperazin-1-yl)-5-((4-methyl-6-(3-methyl-2-(1-oxo-3,4,5,6,7,8-hexahydrobenzo [4, 5]thieno[2,3-c]pyridin-2(1H)-yl)pyridin-4-yl)-3-oxo-3,4-dihydropyrazin-2-yl)amino)phenyl) acrylamide], for which, on WT BTK [1], the “Conclusion (WT BTK)” value is recorded as “Irreversible/covalent inhibition”.

In the case of `C=CC(=O)Nc1cc(Nc2nc(-c3ccnc(N4CCn5c(cc6c5CC(C)(C)C6)C4=O)c3C)cn(C)c2=O)ccc1N1CCN(C2COC2)CC1(C)C` [Example 45, N-[2-[2,2-dimethyl-4-(oxetan-3-yl)piperazin-1-yl]-5-[[6-(2-[4,4-dimethyl-9-oxo-1,10-diazatricyclo[6.4.0.0^[2,6]]dodeca-2(6),7-dien-10-yl]-3-methylpyridin-4-yl)-4-methyl-3-oxopyrazin-2-yl]amino]phenyl]prop-2-enamide], on WT BTK [1], the “Recovery after 24 h dialysis” value was about 1% and the “Conclusion (WT BTK)” value is “Irreversible/covalent inhibition”.

On to `C=CC(=O)Nc1cc(Nc2nc(-c3ccnc(N4CCn5c(cc6c5CC(C)(C)C6)C4=O)c3C)cn(C)c2=O)cnc1N1CCN(C2COC2)C[C@@H]1C` [Example 46, N-(5-[[6-(2-[4,4-dimethyl-9-oxo-1,10-diazatricyclo[6.4.0.0^[2,6]]dodeca-2(6),7-dien-10-yl]-3-methylpyridin-4-yl)-4-methyl-3-oxopyrazin-2-yl]amino]-2-[(2S)-2-methyl-4-(oxetan-3-yl)piperazin-1-yl]pyridin-3-yl)prop-2-enamide], for which, on WT BTK [1], the “Recovery after 24 h dialysis” value is on record as about 1% and the “Conclusion (WT BTK)” value is on record as “Irreversible/covalent inhibition”.
